Bridge positions count the residues as written; N and C are the ends. Peptide text beside a SMILES is read from it.
Columns and labels:
[1] = Inhibition of trypsin
Pancreatic elastase = Pancreatic elastase (Sus scrofa, UniProt P08419+P00772); assay: Inhibition of porcine pancreatic elastase; format: protein assay
[2] = Inhibition of subtilisin BPN
[3] = Inhibition of chymotrypsin

## CC(C)C[C@@H](NC(=O)[C@H](O)COS(=O)(=O)O)C(=O)N[C@@H]1C(=O)N[C@@H](CCCNC(=N)N)C(=O)N[C@H]2CC[C@@H](O)N(C2=O)[C@@H](CC(C)C)C(=O)N(C)[C@@H](Cc2ccc(O)cc2)C(=O)N[C@@H](C(C)C)C(=O)O[C@@H]1C
[1]
  Ki: 9 nM

## C/C=C1\NC(=O)[C@H]2NC(=O)[C@@H](NC(=O)C(C)C)CCCNC(=O)Nc3cc(O)c(O)cc3C[C@@H](C(=O)N[C@@H](C(C)C)C(=O)O[C@H]2C)N(C)C(=O)[C@H](Cc2ccccc2)N2C(=O)[C@H](CC[C@H]2O)NC1=O
Pancreatic elastase
  IC50: 260 nM

## CSCC[C@@H]1NC(=O)[C@@H](NC(=O)[C@H](C)NC(=O)[C@@H](N)Cc2ccccc2)[C@@H](C)OC(=O)C[C@@H]2NC(=O)[C@H](COC(=O)C[C@@H](C(=O)N[C@@H](CCC(=O)O)C(=O)O)NC(=O)[C@H](CO)NC2=O)NC(=O)[C@@H]2CCCN2C(=O)[C@H](Cc2ccc(O)cc2)NC(=O)[C@H](CCCNC(=N)N)NC1=O [MARINOSTATIN] (H-FATMRYPSDSDE-OH; ester 3-9, 8-11)
[2]
  Ki: 1.5 nM
[3]
  Ki: 300 nM

## CCCC(=O)N[C@@H](C)C(=O)N[C@H](C(=O)N[C@@H]1C(=O)N[C@@H](CC(C)C)C(=O)N[C@@H]2CC[C@H](O)N(C2=O)[C@@H](C(C)O)C(=O)N[C@@H](Cc2ccc(O)c(Cl)c2)C(=O)N[C@@H](C(C)C)C(=O)O[C@H]1C)[C@@H](C)O (stereo not given in full) [SCYPTOLIN A]
Pancreatic elastase
  IC50: 160 nM

Reference: ChEMBL document CHEMBL1140630, “Resisting degradation by human elastase: commonality of design features shared by 'canonical' plant and bacterial macrocyclic protease inhibitor scaffolds” (Bioorg Med Chem, 2007)
